Tests used:
[1] = (§1) Enzymatic Activity Assay : The activity of recombinant human PI3Kγ ((aa144-1102)-6His) and PI3Kα, β, δ (6-His(p110-p85α)) was determined by measuring the ADP level after phosphorylation of DiC8-PIP2 using a commercially available ADP-Glo™ kit from Promega. The assay was carried out in white low volume 384 well plates in a final volume of 14 μl at R.T. The assay conditions contained the following: 50 mM Tris buffer pH 7.4, 2.1 mM DTT, 3 mM MgCl2, 0.05% CHAPS, 20 μM ATP, 80 μM DiC8-PIP2 and 1.2 nM PI3Kα, β, γ or 0.6 nM PI3Kδ. Potential inhibitors were made up in DMSO and then diluted in the assay to give a final concentration of not exceeding 1% (v/v) DMSO. […] Routinely, inhibitors were pre-incubated with 3 μl of enzyme for 15 min prior to the addition of 2 μl substrate mixture for a further 60 min enzyme reaction. The phosphorylation was stopped with the addition of 3 μl ADP-Glo™ reagent (stop solution) followed by a 40 min incubation. Prior to detection 6 μl of ADP-Glo™ Kinase Detection Reagent was added and the plates were read in a micro plate reader using a Luminescence filter. All additions were followed by a short centrifugation step.
[2] = molecular target: T1, Phosphatidylinositol 4,5-bisphosphate 3-kinase catalytic subunit delta isoform (Homo sapiens, UniProt O00329); assay: as §1
T1 sequence (O00329 whole entry): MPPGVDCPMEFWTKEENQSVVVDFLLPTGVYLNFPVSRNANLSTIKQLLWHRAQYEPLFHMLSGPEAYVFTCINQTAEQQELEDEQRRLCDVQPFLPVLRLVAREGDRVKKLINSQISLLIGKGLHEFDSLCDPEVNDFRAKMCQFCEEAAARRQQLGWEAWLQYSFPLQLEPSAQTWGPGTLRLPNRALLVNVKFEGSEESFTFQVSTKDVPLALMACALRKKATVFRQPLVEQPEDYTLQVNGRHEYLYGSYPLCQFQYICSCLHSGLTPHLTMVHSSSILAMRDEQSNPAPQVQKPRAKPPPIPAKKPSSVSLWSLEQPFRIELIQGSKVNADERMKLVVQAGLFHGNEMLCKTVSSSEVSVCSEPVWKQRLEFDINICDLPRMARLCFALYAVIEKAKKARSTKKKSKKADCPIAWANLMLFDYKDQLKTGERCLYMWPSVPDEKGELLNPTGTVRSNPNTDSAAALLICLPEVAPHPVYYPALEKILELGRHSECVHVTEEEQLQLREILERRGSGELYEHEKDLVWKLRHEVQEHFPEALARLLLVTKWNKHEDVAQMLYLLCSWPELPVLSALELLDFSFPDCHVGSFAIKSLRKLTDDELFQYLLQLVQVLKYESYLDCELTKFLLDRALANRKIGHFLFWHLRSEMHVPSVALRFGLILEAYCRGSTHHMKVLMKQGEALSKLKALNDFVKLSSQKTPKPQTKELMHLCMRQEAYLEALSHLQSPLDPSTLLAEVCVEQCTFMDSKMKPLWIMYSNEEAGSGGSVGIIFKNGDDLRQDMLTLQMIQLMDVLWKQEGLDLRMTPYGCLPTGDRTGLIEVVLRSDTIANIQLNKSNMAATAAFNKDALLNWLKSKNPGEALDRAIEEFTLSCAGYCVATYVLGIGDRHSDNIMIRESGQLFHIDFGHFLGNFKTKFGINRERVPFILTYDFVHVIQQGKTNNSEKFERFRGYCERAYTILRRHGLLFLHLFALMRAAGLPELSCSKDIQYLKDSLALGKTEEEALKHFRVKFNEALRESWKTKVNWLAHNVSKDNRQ

[3] = molecular target: Phosphatidylinositol 4,5-bisphosphate 3-kinase catalytic subunit beta isoform (Homo sapiens, UniProt P42338); assay: as §1
[4] = molecular target: Phosphatidylinositol 4,5-bisphosphate 3-kinase catalytic subunit alpha isoform (Homo sapiens, UniProt P42336); assay: as §1
Sequence of Phosphatidylinositol 4,5-bisphosphate 3-kinase catalytic subunit alpha isoform (P42336 whole entry, canonical isoform): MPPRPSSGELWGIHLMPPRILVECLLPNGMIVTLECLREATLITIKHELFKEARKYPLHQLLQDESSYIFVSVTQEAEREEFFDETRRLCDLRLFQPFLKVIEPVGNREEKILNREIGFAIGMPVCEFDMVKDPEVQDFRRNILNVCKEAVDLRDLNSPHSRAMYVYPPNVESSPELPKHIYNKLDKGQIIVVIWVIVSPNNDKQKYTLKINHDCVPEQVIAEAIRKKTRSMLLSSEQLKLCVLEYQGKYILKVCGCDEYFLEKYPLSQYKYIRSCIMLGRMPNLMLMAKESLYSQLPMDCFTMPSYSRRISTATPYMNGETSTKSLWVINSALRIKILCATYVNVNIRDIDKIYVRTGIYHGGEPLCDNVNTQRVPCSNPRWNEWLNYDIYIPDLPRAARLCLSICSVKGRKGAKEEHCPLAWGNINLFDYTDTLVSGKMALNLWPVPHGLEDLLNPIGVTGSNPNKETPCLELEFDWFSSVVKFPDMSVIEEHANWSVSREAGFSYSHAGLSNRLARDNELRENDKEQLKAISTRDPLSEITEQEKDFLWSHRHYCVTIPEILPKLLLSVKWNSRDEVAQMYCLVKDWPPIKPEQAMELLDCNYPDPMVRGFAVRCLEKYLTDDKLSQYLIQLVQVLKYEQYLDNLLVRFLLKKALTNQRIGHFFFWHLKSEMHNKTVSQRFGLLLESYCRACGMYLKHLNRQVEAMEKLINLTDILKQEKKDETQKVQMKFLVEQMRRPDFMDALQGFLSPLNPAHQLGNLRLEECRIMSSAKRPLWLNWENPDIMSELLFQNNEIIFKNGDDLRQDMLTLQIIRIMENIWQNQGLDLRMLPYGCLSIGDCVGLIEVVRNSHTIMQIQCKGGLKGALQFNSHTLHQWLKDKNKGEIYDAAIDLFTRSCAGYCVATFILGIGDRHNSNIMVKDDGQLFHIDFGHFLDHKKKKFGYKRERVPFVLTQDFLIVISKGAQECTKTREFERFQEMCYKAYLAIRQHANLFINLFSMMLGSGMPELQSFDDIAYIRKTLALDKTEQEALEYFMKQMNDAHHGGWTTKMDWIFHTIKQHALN

Sequence of Phosphatidylinositol 4,5-bisphosphate 3-kinase catalytic subunit beta isoform (P42338 whole entry, canonical isoform): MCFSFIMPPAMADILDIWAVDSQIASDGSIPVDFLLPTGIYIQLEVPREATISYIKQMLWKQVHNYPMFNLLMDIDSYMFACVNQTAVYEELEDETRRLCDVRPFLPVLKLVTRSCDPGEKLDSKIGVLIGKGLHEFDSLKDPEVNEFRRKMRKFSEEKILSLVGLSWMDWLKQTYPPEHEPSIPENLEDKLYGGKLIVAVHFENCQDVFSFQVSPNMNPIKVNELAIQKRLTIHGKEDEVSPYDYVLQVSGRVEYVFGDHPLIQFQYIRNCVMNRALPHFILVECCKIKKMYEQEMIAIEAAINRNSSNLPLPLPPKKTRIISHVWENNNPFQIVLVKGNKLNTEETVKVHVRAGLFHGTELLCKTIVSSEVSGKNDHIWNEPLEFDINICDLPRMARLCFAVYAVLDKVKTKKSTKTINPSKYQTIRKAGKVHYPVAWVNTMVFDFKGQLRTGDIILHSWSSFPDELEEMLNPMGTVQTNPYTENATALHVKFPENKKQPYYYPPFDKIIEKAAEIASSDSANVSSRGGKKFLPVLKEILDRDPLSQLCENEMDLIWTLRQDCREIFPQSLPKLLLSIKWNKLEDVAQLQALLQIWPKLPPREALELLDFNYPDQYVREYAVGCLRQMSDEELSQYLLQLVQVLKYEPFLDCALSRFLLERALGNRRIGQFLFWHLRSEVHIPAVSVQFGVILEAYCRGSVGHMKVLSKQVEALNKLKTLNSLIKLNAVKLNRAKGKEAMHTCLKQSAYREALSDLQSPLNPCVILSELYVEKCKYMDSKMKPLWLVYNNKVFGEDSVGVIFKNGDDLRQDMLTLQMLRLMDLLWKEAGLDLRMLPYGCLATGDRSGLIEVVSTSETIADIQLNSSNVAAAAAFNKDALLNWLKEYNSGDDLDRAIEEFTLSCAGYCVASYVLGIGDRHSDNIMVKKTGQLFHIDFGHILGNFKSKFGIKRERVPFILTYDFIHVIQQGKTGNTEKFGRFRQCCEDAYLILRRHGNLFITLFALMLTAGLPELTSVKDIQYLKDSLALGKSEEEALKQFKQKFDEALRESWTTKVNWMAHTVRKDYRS

IC50 [1] [nM] | IC50 [2] [nM] | IC50 [3] [nM] | IC50 [4] [nM] | Compound
0.9 |  |  |  | Cc1nc(Nc2cccc(N3CCCC3=O)c2)sc1-c1cc2c(c(S(C)(=O)=O)c1)C(=O)N([C@@H](C)C1CC1)C2
 | 2.2 | 459 | 80 | CC[C@H](C)N1Cc2cc(-c3sc(Nc4cccc(N5CCCOC5=O)n4)nc3C)cc(S(=O)(=O)NC)c2C1=O

Source: ChEMBL document CHEMBL5728361, “(S)-2-(1-cyclopropylethyl)-5-(4-methyl-2-((6-(2-oxopyrrolidin-1-yl)pyridin-2-yl)amino) thiazol-5-yl)-7-(methylsulfonyl)isoindolin-1-one as a phosphatidylinositol 3-kinase inhibitor” (2021)
